Test results: the NIST ThermoML archive (doi:10.1021/je049899g)

What was measured:
[1] = 298.15 K, 101.33 kPa, Liquid; for viscosity: Capillary tube (Ostwald / Ubbelohde) method; for speed of sound: Sing-around technique in a fixed-path interferometer; for mass density: Vibrating tube method
[2] = xn = mol fraction of the nth substance listed; conditions: 298.15 K, 101.33 kPa, Liquid; for viscosity: Capillary tube (Ostwald / Ubbelohde) method; for speed of sound: Sing-around technique in a fixed-path interferometer; for mass density: Vibrating tube method

Cc1ccccc1C [1,2-dimethylbenzene]
[1]
Conditions | mass density [kg/m3] | speed of sound [m/s] | viscosity [mPa·s]
– | 875.2 | 1349 | 0.769

Cc1ccccc1C [1,2-dimethylbenzene] + CC(=O)CC(C)C
[2], x1 = 1
Conditions | mass density [kg/m3] | speed of sound [m/s] | viscosity [mPa·s]
– | 875.2 | 1349 | 0.769

Cc1cccc(C)c1 [1,3-dimethylbenzene]
[1]
Conditions | mass density [kg/m3] | speed of sound [m/s] | viscosity [mPa·s]
– | 859.4 | 1323 | 0.587

Cc1cccc(C)c1 [1,3-dimethylbenzene] + CC(=O)CC(C)C
[2], x1 = 1
Conditions | mass density [kg/m3] | speed of sound [m/s] | viscosity [mPa·s]
– | 859.4 | 1323 | 0.587

Cc1ccc(C)cc1 [1,4-dimethylbenzene]
[1]
Conditions | mass density [kg/m3] | speed of sound [m/s] | viscosity [mPa·s]
– | 856.1 | 1316 | 0.609

Cc1ccc(C)cc1 [1,4-dimethylbenzene] + CC(=O)CC(C)C
[2], x1 = 1
Conditions | mass density [kg/m3] | speed of sound [m/s] | viscosity [mPa·s]
– | 856.1 | 1316 | 0.609

CC(=O)CC(C)C [4-methylpentan-2-one]
[1]
Conditions | mass density [kg/m3] | speed of sound [m/s] | viscosity [mPa·s]
– | 796 | 1215 | 0.55

CC(=O)CC(C)C [4-methylpentan-2-one] + CC(C)c1ccccc1
[2], x2 = 0
Conditions | mass density [kg/m3] | speed of sound [m/s] | viscosity [mPa·s]
– | 796 | 1215 | 0.55

CC(=O)CC(C)C [4-methylpentan-2-one] + Cc1ccc(C)cc1
[2]
Conditions | mass density [kg/m3] | speed of sound [m/s] | viscosity [mPa·s]
x2 = 0 | 796 | 1215 | 0.55
x2 = 0.059 | 800.1 | 1215 | 0.553
x2 = 0.1454 | 805.8 | 1226 | 0.556
x2 = 0.2887 | 814.9 | 1248 | 0.562
x2 = 0.4325 | 823.6 | 1267 | 0.567
x2 = 0.5735 | 832.2 | 1284 | 0.572
x2 = 0.7166 | 840.5 | 1300 | 0.579
x2 = 0.8587 | 848.4 | 1311 | 0.591
x2 = 0.9419 | 853 | 1315 | 0.6

CC(=O)CC(C)C [4-methylpentan-2-one] + Cc1cccc(C)c1
[2]
Conditions | mass density [kg/m3] | speed of sound [m/s] | viscosity [mPa·s]
x2 = 0 | 796 | 1215 | 0.55
x2 = 0.0586 | 801.4 | 1207 | 0.554
x2 = 0.1483 | 809.5 | 1212 | 0.558
x2 = 0.2898 | 821.2 | 1233 | 0.564
x2 = 0.4312 | 830.5 | 1257 | 0.567
x2 = 0.5762 | 837.4 | 1280 | 0.569
x2 = 0.7187 | 842.8 | 1299 | 0.572
x2 = 0.8591 | 849 | 1314 | 0.577
x2 = 0.9429 | 854.4 | 1321 | 0.582

CC(=O)CC(C)C [4-methylpentan-2-one] + Cc1ccccc1C
[2]
Conditions | mass density [kg/m3] | speed of sound [m/s] | viscosity [mPa·s]
x2 = 0 | 796 | 1215 | 0.55
x2 = 0.0598 | 801.3 | 1214 | 0.562
x2 = 0.1483 | 808.9 | 1220 | 0.577
x2 = 0.2932 | 820.7 | 1237 | 0.605
x2 = 0.4368 | 832.2 | 1263 | 0.631
x2 = 0.582 | 843.4 | 1294 | 0.662
x2 = 0.7227 | 854.5 | 1318 | 0.694
x2 = 0.8635 | 865.1 | 1336 | 0.73
x2 = 0.9457 | 871.2 | 1345 | 0.751

CC(C)c1ccccc1 [isopropylbenzene]
[1]
Conditions | mass density [kg/m3] | speed of sound [m/s] | viscosity [mPa·s]
– | 857.1 | 1338 | 0.739

CC(C)c1ccccc1 [isopropylbenzene] + CC(=O)CC(C)C
[2]
Conditions | mass density [kg/m3] | speed of sound [m/s] | viscosity [mPa·s]
x1 = 0.0518 | 799.4 | 1227 | 0.563
x1 = 0.1305 | 804.6 | 1231 | 0.579
x1 = 0.2631 | 813.4 | 1234 | 0.6
x1 = 0.4022 | 822.6 | 1246 | 0.621
x1 = 0.5439 | 831.5 | 1262 | 0.645
x1 = 0.6917 | 840.3 | 1282 | 0.672
x1 = 0.842 | 848.7 | 1309 | 0.704
x1 = 0.9355 | 853.7 | 1325 | 0.725
x1 = 1 | 857.1 | 1338 | 0.739
